Assay results taken from patent publication US20160199436A1, “METHODS AND COMPOSITIONS FOR THE TREATMENT OF AMYOTROPHIC LATERAL SCLEROSIS” (University of Iowa Research Foudation, priority 2015, published 2016).
“Also recorded” adds a separate entry of the source.

What was measured:
SOD1 mice [1] = assay: Survival of SOD1 mice (ALS model), Kaplan Meier; format: in vivo, mouse
Text: (§1) In this Example, SOD1 mice, a known and accepted model of amyotrophic lateral sclerosis (ALS), were used to assess the effects of angiotensin (1-7) peptides, here TXA127 (SEQ ID NO: 1), on survival and quality of life over time. The SOD1 mouse line are known to contain a G93A mutation in their superoxide dismutase 1 (SOD1) gene, and this mutation leads to a phenotype very similar to the phenotype of a human ALS sufferer.
(§2) A total of 70 mice were used in this study, 40 SOD1 mice and 30 wild type C57BL/6J mice (all were obtained from the Jackson Laboratories). Mice were three weeks old at the beginning of the study, and osmotic minipumps were implanted in each animal. After implantation, each animal was exposed to either 500 μg/kg/day TXA127 (SEQ ID NO: 1) or saline vehicle for up to 8 weeks. After 8 weeks, surviving mice received a daily injection of either 500 μg/kg TXA127 (SEQ ID NO: 1) or vehicle.

SOD1 mice [2] = assay: ALS score (disease progression/quality of life) in SOD1 mice; format: in vivo, mouse
Text: as §1, §2
In addition to survival, disease progression/quality of life was measured over time using the rating scale described above. […] FIG. 3 further describes this effect, by showing the percentage of animals in each SOD1 group that were rated as having an ALS score of 2 or less over time.

[3] = 500 μg/kg/day TXA127 vs SOD1-vehicle, up to 30 weeks

Asp^1-Arg^2-Val^3-Tyr^4-Ile^5-His^6-Pro^7 [TXA127]
effect on survival (in words) (SOD1 mice [1]; 500 μg/kg/day TXA127): powerful survival benefit; also recorded: significant effect on survival | extension of life (median) versus vehicle treated SOD1 mice (SOD1 mice [1]; 500 μg/kg/day TXA127): 30 days | median survival (SOD1 mice [1]; 500 μg/kg/day TXA127 by osmotic minipump up to 8 weeks, then daily injection): 164 days | disease progression (summary in words) (SOD1 mice [2]; 500 μg/kg/day TXA127): delays disease progression | percentage of animals with an ALS score of 2 or less over time (FIG. 3) (SOD1 mice [2]; [3]): clearly delayed the worsening of symptoms, often by several weeks | sum of ALS scores over time (FIG. 2) (SOD1 mice [2]; [3]): significantly delaying worsening of symptoms
